In US6358885B1, “Substituted phenylheterocyclic herbicides” (Mississippi State University, priority 1992, dated 2002):

Experiments:
Assay in all cases: Test B preemergence/postemergence greenhouse plant response rating 0 to 10
[1] = system: blackgrass; format: in vivo, Alopecurus myosuroides; settings: for Plant response rating, Blackgrass: 0 to 10 scale
How it was run: (§1)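 Test chemicals were sprayed onto freshly planted seed and, concurrently, onto young plants between the one and four leaf stage. After a twelve- to sixteen-day greenhouse period, each species was visually compared with untreated controls.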

[2] = system: bedstraw; format: in vivo, Galium aparine; settings: for Plant response rating, Bedstraw: 0 to 10 scale
How it was run: as §1

[3] = system: chickweed; format: in vivo, Stellaria media; settings: for Plant response rating, Chickweed: 0 to 10 scale
How it was run: as §1

[4] = system: rice; format: in vivo, Oryza sativa; settings: for Plant response rating, Rice: 0 to 10 scale
How it was run: as §1

[5] = system: rape; format: in vivo, Brassica napus; settings: for Plant response rating, Rape: 0 to 10 scale
How it was run: as §1

[6] = system: wild buckwheat; format: in vivo, Polygonum convolvulus; settings: for Plant response rating, Wild buckwheat: 0 to 10 scale
How it was run: as §1

[7] = system: cocklebur; format: in vivo, Xanthium pensylvanicum; settings: for Plant response rating, Cocklebur: 0 to 10 scale
How it was run: as §1

[8] = system: giant foxtail; format: in vivo, Setaria faberii; settings: for Plant response rating, Giant foxtail: 0 to 10 scale
How it was run: as §1

[9] = system: purple nutsedge; format: in vivo, Cyperus rotundus; settings: for Plant response rating, Nutsedge: 0 to 10 scale
How it was run: as §1

[10] = system: cotton; format: in vivo, Gossypium hirsutum; settings: for Plant response rating, Cotton: 0 to 10 scale
How it was run: as §1

[11] = system: wild oat; format: in vivo, Avena fatua; settings: for Plant response rating, Wild oat: 0 to 10 scale
How it was run: as §1

[12] = system: barley; format: in vivo, Hordeum vulgare; settings: for Plant response rating, Barley: 0 to 10 scale
How it was run: as §1

[13] = system: wheat; format: in vivo, Triticum aestivum; settings: for Plant response rating, Wheat: 0 to 10 scale
How it was run: as §1

[14] = system: sugar beet; format: in vivo, Beta vulgaris; settings: for Plant response rating, Sugar beet: 0 to 10 scale
How it was run: as §1

[15] = system: crabgrass; format: in vivo, Digitaria spp.; settings: for Plant response rating, Crabgrass: 0 to 10 scale
How it was run: as §1

[16] = system: morningglory; format: in vivo, Ipomoea hederacea; settings: for Plant response rating, Morningglory: 0 to 10 scale
How it was run: as §1

[17] = system: soybean; format: in vivo, Glycine max; settings: for Plant response rating, Soybean: 0 to 10 scale
How it was run: as §1

[18] = system: velvetleaf; format: in vivo, Abutilon theophrasti; settings: for Plant response rating, Velvetleaf: 0 to 10 scale
How it was run: as §1

[19] = system: lambsquarters; format: in vivo, Chenopodium album; settings: for Plant response rating, Lambsquarter: 0 to 10 scale
How it was run: as §1

[20] = system: sorghum; format: in vivo, Sorghum bicolor; settings: for Plant response rating, Sorghum: 0 to 10 scale
How it was run: as §1

[21] = system: cheatgrass; format: in vivo, Bromus secalinus; settings: for Plant response rating, Cheatgrass: POSTEMERGENCE, 0 to 10 scale
How it was run: as §1

[22] = system: corn; format: in vivo, Zea mays; settings: for Plant response rating, Corn: 0 to 10 scale
How it was run: as §1

[23] = system: barnyardgrass; format: in vivo, Echinochloa crus-galli; settings: for Plant response rating, Barnyardgrass: 0 to 10 scale
How it was run: as §1

Oc1cc(-c2nn3c(c2Cl)CCCC3)c(Cl)cc1Cl [Compound 68]
10: Plant response rating, Wild buckwheat ([6]; POSTEMERGENCE, Rate 50 g/ha) | Plant response rating, Wild buckwheat ([6]; Rate 200 g/ha, POSTEMERGENCE) | Plant response rating, Cotton ([10]; POSTEMERGENCE, Rate 50 g/ha) | Plant response rating, Cotton ([10]; Rate 200 g/ha, POSTEMERGENCE) | Plant response rating, Sugar beet ([14]; Rate 200 g/ha, POSTEMERGENCE) | Plant response rating, Velvetleaf ([18]; Rate 200 g/ha, POSTEMERGENCE) | Plant response rating, Lambsquarter ([19]; POSTEMERGENCE, Rate 50 g/ha) | Plant response rating, Lambsquarter ([19]; Rate 200 g/ha, POSTEMERGENCE)
2: Plant response rating, Blackgrass ([1]; POSTEMERGENCE, Rate 50 g/ha) | Plant response rating, Blackgrass ([1]; PREEMERGENCE, Rate 50 g/ha) | Plant response rating (0 to 10 scale), Bedstraw ([2]; PREEMERGENCE, Rate 200 g/ha) | Plant response rating, Chickweed ([3]; PREEMERGENCE, Rate 50 g/ha) | Plant response rating (0 to 10 scale), Chickweed ([3]; PREEMERGENCE, Rate 200 g/ha) | Plant response rating, Nutsedge ([9]; POSTEMERGENCE, Rate 50 g/ha) | Plant response rating, Wild oat ([11]; POSTEMERGENCE, Rate 50 g/ha) | Plant response rating (0 to 10 scale), Crabgrass ([15]; PREEMERGENCE, Rate 200 g/ha) | Plant response rating, Cheatgrass ([21]; Rate 50 g/ha) | Plant response rating, Barnyardgrass ([23]; POSTEMERGENCE, Rate 50 g/ha)
8: Plant response rating (0 to 10 scale), Blackgrass ([1]; PREEMERGENCE, Rate 200 g/ha) | Plant response rating, Morningglory ([16]; POSTEMERGENCE, Rate 50 g/ha) | Plant response rating, Morningglory ([16]; Rate 200 g/ha, POSTEMERGENCE) | Plant response rating, Velvetleaf ([18]; POSTEMERGENCE, Rate 50 g/ha)
6: Plant response rating, Cocklebur ([7]; POSTEMERGENCE, Rate 50 g/ha) | Plant response rating, Soybean ([17]; Rate 200 g/ha, POSTEMERGENCE) | Plant response rating, Lambsquarter ([19]; PREEMERGENCE, Rate 50 g/ha)
5: Plant response rating, Rice ([4]; POSTEMERGENCE, Rate 50 g/ha) | Plant response rating, Rice ([4]; Rate 200 g/ha, POSTEMERGENCE) | Plant response rating, Rape ([5]; Rate 200 g/ha, POSTEMERGENCE)
0: Plant response rating, Bedstraw ([2]; PREEMERGENCE, Rate 50 g/ha) | Plant response rating, Chickweed ([3]; POSTEMERGENCE, Rate 50 g/ha) | Plant response rating, Rice ([4]; PREEMERGENCE, Rate 50 g/ha) | Plant response rating (0 to 10 scale), Rice ([4]; PREEMERGENCE, Rate 200 g/ha) | Plant response rating, Rape ([5]; PREEMERGENCE, Rate 50 g/ha) | Plant response rating (0 to 10 scale), Rape ([5]; PREEMERGENCE, Rate 200 g/ha) | Plant response rating, Wild buckwheat ([6]; PREEMERGENCE, Rate 50 g/ha) | Plant response rating, Cocklebur ([7]; PREEMERGENCE, Rate 50 g/ha) | Plant response rating (0 to 10 scale), Cocklebur ([7]; PREEMERGENCE, Rate 200 g/ha) | Plant response rating, Giant foxtail ([8]; PREEMERGENCE, Rate 50 g/ha) | Plant response rating (0 to 10 scale), Giant foxtail ([8]; PREEMERGENCE, Rate 200 g/ha) | Plant response rating, Nutsedge ([9]; PREEMERGENCE, Rate 50 g/ha) | Plant response rating (0 to 10 scale), Nutsedge ([9]; PREEMERGENCE, Rate 200 g/ha) | Plant response rating, Cotton ([10]; PREEMERGENCE, Rate 50 g/ha) | Plant response rating (0 to 10 scale), Cotton ([10]; PREEMERGENCE, Rate 200 g/ha) | Plant response rating, Wild oat ([11]; PREEMERGENCE, Rate 50 g/ha) | Plant response rating (0 to 10 scale), Wild oat ([11]; PREEMERGENCE, Rate 200 g/ha) | Plant response rating, Barley ([12]; PREEMERGENCE, Rate 50 g/ha) | Plant response rating (0 to 10 scale), Barley ([12]; PREEMERGENCE, Rate 200 g/ha) | Plant response rating, Wheat ([13]; PREEMERGENCE, Rate 50 g/ha) | Plant response rating, Sugar beet ([14]; PREEMERGENCE, Rate 50 g/ha) | Plant response rating, Crabgrass ([15]; PREEMERGENCE, Rate 50 g/ha) | Plant response rating, Morningglory ([16]; PREEMERGENCE, Rate 50 g/ha) | Plant response rating (0 to 10 scale), Morningglory ([16]; PREEMERGENCE, Rate 200 g/ha) | Plant response rating, Soybean ([17]; PREEMERGENCE, Rate 50 g/ha) | Plant response rating (0 to 10 scale), Soybean ([17]; PREEMERGENCE, Rate 200 g/ha) | Plant response rating, Velvetleaf ([18]; PREEMERGENCE, Rate 50 g/ha) | Plant response rating (0 to 10 scale), Lambsquarter ([19]; PREEMERGENCE, Rate 200 g/ha) | Plant response rating, Sorghum ([20]; PREEMERGENCE, Rate 50 g/ha) | Plant response rating (0 to 10 scale), Sorghum ([20]; PREEMERGENCE, Rate 200 g/ha) | Plant response rating, Corn ([22]; PREEMERGENCE, Rate 50 g/ha) | Plant response rating (0 to 10 scale), Corn ([22]; PREEMERGENCE, Rate 200 g/ha) | Plant response rating, Barnyardgrass ([23]; PREEMERGENCE, Rate 50 g/ha) | Plant response rating (0 to 10 scale), Barnyardgrass ([23]; PREEMERGENCE, Rate 200 g/ha)
7: Plant response rating, Bedstraw ([2]; POSTEMERGENCE, Rate 50 g/ha) | Plant response rating, Cocklebur ([7]; Rate 200 g/ha, POSTEMERGENCE)
9: Plant response rating, Bedstraw ([2]; Rate 200 g/ha, POSTEMERGENCE) | Plant response rating, Sugar beet ([14]; POSTEMERGENCE, Rate 50 g/ha) | Plant response rating (0 to 10 scale), Sugar beet ([14]; PREEMERGENCE, Rate 200 g/ha) | Plant response rating (0 to 10 scale), Velvetleaf ([18]; PREEMERGENCE, Rate 200 g/ha)
1: Plant response rating, Chickweed ([3]; Rate 200 g/ha, POSTEMERGENCE)
4: Plant response rating (0 to 10 scale), Wild buckwheat ([6]; PREEMERGENCE, Rate 200 g/ha) | Plant response rating, Giant foxtail ([8]; POSTEMERGENCE, Rate 50 g/ha) | Plant response rating, Giant foxtail ([8]; Rate 200 g/ha, POSTEMERGENCE) | Plant response rating, Wheat ([13]; Rate 200 g/ha, POSTEMERGENCE) | Plant response rating, Crabgrass ([15]; Rate 200 g/ha, POSTEMERGENCE) | Plant response rating, Soybean ([17]; POSTEMERGENCE, Rate 50 g/ha) | Plant response rating, Sorghum ([20]; Rate 200 g/ha, POSTEMERGENCE) | Plant response rating, Corn ([22]; Rate 200 g/ha, POSTEMERGENCE)
3: Plant response rating, Blackgrass ([1]; Rate 200 g/ha, POSTEMERGENCE) | Plant response rating, Rape ([5]; POSTEMERGENCE, Rate 50 g/ha) | Plant response rating, Nutsedge ([9]; Rate 200 g/ha, POSTEMERGENCE) | Plant response rating, Wild oat ([11]; Rate 200 g/ha, POSTEMERGENCE) | Plant response rating, Barley ([12]; POSTEMERGENCE, Rate 50 g/ha) | Plant response rating, Barley ([12]; Rate 200 g/ha, POSTEMERGENCE) | Plant response rating, Wheat ([13]; POSTEMERGENCE, Rate 50 g/ha) | Plant response rating (0 to 10 scale), Wheat ([13]; PREEMERGENCE, Rate 200 g/ha) | Plant response rating, Crabgrass ([15]; POSTEMERGENCE, Rate 50 g/ha) | Plant response rating, Sorghum ([20]; POSTEMERGENCE, Rate 50 g/ha) | Plant response rating (0 to 10 scale), Cheatgrass ([21]; PREEMERGENCE, Rate 200 g/ha) | Plant response rating, Cheatgrass ([21]; Rate 200 g/ha) | Plant response rating, Corn ([22]; POSTEMERGENCE, Rate 50 g/ha) | Plant response rating, Barnyardgrass ([23]; Rate 200 g/ha, POSTEMERGENCE)
